# Counter-ions that a name gives are not always drawn. Like-named read-outs stand apart in the source and are kept apart here. d = 2'-deoxy (DNA); r = 2'-OH (RNA)
# Legend:
# [1] = molecular target: cytochrome P450 3A4 (Homo sapiens, UniProt P08684); details: cited from earlier work
# [2] = test system: Pgp, BCRP, MRP2; details: cited from earlier work
# [3] = test system: P-gp, BCRP, and MRP2; assay: mock screening of model drugs: ex vivo perfusion through porcine small intestine tissue after siRNA knockdown; details: transporter(s) found by siRNA knockdown perfusion screen
# Description: (§4) Pig tissue was freshly sourced from local slaughter houses (i.e., Leman & Sons, Hilltown Pork, and Blood Farm). Small intestinal tissue was isolated from intact gastrointestinal tract immediately after euthanasia, and dissected longitudinally. A series of washes with PBS supplemented with 5% Antibiotic-Antimycotic solution (Thermo Fisher Scientific) was applied to the tissue until clean under sterile conditions. Then, the tissue was mounted on a device filled with PBS (5% Antibiotic-Antimycotic) solution and cultured at 37° C. incubation with 5% CO2 supplement.
# (§5) siRNA duplex solution was diluted into PBS solution to a final concentration of 1 μM. […] Tissue was cultured for 24 hours before the perfusion assay.
# (§6) The device consists of a bottom reservoir plate and an upper load plate. Both plates were made by laser cutting (Universal Laser Systems VLS6.60) a standard 48-well plate outline and well pattern (Corning 48 well plate, transparent) as well as magnet holes onto an acrylic sheet (McMaster-Carr 1/4″ thickness). Neodymium magnets (K&J Magnetics Cylinder, 3/16″× 3/16″, N52, NI) were press fitted into the magnet holes of both plates. Seal film (Thermo) was applied to seal the bottoms of the wells of the reservoir plate, and PBS solution was loaded into each well. Then, tissue was placed on top of the reservoir plate and the upper load plate was laid on top of the tissue. The magnets were oriented to align and attract the two plates together, ensuring a strong seal between the wells.
# (§7) For ex vivo perfusion study, the detection of each drug is based on either fluorescent or absorbance measurements according to the literature. A 1 mg/mL drug stock was prepared for each drug in PBS (pH 7.4). For water-insoluble drugs, a final concentration of DMSO in PBS was used to solubilize drugs.
# [4] = test system: BCRP and MRP2; assay: ex vivo perfusion with doxycycline co-treatment
# Description: Four candidate drugs that are known substrates of BCRP and MRP2 were manually selected to study whether they could potentially interact with doxycycline.
# As a first-line test (FIG. 10), ex vivo perfusion experiments were conducted to test for changes in absorption when co-administering the candidates with doxycycline.
# [5] = test system: P-gp, BCRP, and MRP2
# Description: as §4, §5, §6, §7
# [6] = molecular target: T1, BCRP (Sus scrofa, UniProt Q8MIB3); assay: ex vivo perfusion versus gradually reduced BCRP expression; assay type: in vitro ADME, porcine
# T1 construct: Small intestinal tissue was isolated from intact gastrointestinal tract immediately after euthanasia; from tissue; host or cells: porcine small intestine explant, BCRP level lowered by graded siRNA doses
# T1 sequence (Q8MIB3 1-656): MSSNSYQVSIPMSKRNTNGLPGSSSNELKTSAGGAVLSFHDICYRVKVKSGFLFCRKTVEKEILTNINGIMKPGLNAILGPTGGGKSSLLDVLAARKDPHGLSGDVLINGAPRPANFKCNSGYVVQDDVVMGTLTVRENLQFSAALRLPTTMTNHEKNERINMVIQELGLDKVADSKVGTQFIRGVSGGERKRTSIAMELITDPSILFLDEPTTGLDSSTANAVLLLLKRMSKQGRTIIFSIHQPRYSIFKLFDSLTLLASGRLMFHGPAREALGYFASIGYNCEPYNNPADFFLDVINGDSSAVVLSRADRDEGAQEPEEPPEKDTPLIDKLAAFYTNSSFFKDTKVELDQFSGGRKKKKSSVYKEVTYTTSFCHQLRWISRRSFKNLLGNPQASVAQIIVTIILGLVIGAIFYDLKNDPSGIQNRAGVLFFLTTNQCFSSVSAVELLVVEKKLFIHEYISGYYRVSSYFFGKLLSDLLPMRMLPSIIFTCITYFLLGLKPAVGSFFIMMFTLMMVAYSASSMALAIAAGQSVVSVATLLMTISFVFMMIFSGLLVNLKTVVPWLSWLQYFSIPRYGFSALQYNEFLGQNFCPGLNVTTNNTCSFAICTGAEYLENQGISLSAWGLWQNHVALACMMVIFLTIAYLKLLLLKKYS
# Description: (§1) Next perfusion of drugs that are known to be substrates for multiple transporters was studied. […] To be able to delineate such effects, it was aimed to down regulate multiple transporters simultaneously. Two siRNAs targeting P-gp and BCRP were co-delivered with varying concentrations of each siRNA and noted that expression levels could be fine-tuned in a dose-dependent, linear fashion (Pearson r=0.79 and 0.96, FIG. 5C). Next, how the simultaneous and gradual down regulation of transporter expression impacts drug perfusion was studied. Perfusion of BCRP-specific substrates increased linearly with reduced BCRP-expression (dauricine R=0.7, hymecromone sulfate R=0.81) but were not affected by altering P-gp expression (p>0.28 one-tailed Z test at maximum siPgp concentration; FIG. 5C).
# [7] = molecular target: T2, P-gp (Sus scrofa, UniProt K7GMM7); assay: ex vivo perfusion versus altered P-gp expression; assay type: in vitro ADME, porcine
# T2 construct: Small intestinal tissue was isolated from intact gastrointestinal tract immediately after euthanasia; from tissue; host or cells: porcine small intestine explant, P-gp level lowered by graded siRNA doses
# T2 sequence (K7GMM7 1-1248): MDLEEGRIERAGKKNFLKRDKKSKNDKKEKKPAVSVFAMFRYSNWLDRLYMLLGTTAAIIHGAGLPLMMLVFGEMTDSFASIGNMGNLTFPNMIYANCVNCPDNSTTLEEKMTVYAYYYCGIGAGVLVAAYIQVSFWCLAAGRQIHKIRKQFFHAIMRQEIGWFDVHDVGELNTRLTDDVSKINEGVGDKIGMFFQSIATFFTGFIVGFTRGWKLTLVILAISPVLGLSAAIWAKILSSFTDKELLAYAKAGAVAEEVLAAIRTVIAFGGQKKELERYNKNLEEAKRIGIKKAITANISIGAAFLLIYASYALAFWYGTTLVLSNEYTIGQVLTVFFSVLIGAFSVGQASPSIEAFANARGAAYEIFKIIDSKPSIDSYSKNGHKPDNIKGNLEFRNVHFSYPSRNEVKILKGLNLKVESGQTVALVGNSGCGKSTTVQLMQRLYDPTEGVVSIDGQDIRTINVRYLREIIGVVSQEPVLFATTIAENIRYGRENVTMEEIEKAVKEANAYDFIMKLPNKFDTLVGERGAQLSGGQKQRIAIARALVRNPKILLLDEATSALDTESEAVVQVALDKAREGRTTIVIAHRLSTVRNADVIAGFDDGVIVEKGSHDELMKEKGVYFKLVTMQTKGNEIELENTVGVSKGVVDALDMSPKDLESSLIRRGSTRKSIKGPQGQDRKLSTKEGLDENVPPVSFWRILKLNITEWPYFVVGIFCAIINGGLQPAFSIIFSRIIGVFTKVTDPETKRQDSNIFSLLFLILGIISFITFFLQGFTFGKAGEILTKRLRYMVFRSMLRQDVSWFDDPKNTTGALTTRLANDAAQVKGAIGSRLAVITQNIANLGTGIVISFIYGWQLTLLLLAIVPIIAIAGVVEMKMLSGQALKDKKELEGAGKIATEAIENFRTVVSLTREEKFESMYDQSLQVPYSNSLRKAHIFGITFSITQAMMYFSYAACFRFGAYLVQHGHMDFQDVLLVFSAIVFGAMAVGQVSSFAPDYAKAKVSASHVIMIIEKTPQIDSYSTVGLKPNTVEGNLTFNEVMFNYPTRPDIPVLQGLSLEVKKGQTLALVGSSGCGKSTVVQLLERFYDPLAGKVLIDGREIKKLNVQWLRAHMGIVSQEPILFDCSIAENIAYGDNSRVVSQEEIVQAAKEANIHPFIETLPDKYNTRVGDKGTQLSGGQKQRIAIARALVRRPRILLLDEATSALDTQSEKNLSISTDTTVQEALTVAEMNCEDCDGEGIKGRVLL
# Description: as §1
# [8] = test system: P-gp, BCRP, or MRP2; assay: in vivo pharmacokinetic study with oral transport inhibitor pre-treatment; details: oral gavage, serum, 60 minutes; verapamil for P-gp, imatinib for BCRP, or probenecid for MRP2; p<0.05
# [9] = molecular target: T3, P-gp, BCRP, MRP2, PEPT1, and MCT1 (Sus scrofa, UniProt Q8MIB3); assay: ex vivo perfusion of known substrates and non-substrates after knockdown of a single transporter; assay type: in vitro ADME, porcine; details: other drugs p<0.01
# T3 construct: Small intestinal tissue was isolated from intact gastrointestinal tract immediately after euthanasia; from tissue; host or cells: porcine small intestine explant, single transporter knocked down by siRNA
# T3 sequence (Q8MIB3 1-656): T1 sequence (Q8MIB3 1-656)
# Description: If a molecule is transported by a specific transporter, its diffusion across the tissue should be impacted by selectively down regulating that transporter. To validate that the platform accurately captures this behavior, a total of 23 known transporter-drug relationships was tested.
# [10] = test system: BCRP; assay: siRNA dose versus transporter expression (western-blot); assay type: cell-based, porcine; details: co-delivery with varying concentrations, 0 to 25 μM
# Description: (§2) FIGS. 5A-5B show the level of reduction in P-gp and BCRP drug transporter expression depends on the dose of siRNA (0 to 25 μM) administered to the intestinal tissue explant.
# (§3) Tissue was dissected and snap frozen in liquid nitrogen. Every 1 mg of tissue sample was homogenized in 100 μL of RIPA buffer supplied with protease inhibitor (Roche) by Berkin 24-cycle homogenizer. After centrifugation, the protein concentration from the supernatant was determined by BCA assay (Pierce) according to manufactory protocol. A total of 100 μg of protein was loaded on each lane for western-blotting. Blots were imaged with Bio-rad universal Hood Ii Molecular Imager (1312M) with Chemiluminescence method. Contrast setting was set for auto-contrast for all images.
# as §1, with “Perfusion of BCRP-specific substrates increased linearly with reduced BCRP-expression (dauricine R=0.7, hymecromone sulfate R=0.81) but were not affected by altering P-gp expression (p>0.28 one-tailed Z test at maximum siPgp concentration; FIG. 5C).” left out
# [11] = test system: P-gp; assay: as above; assay type: cell-based, porcine; details: co-delivery with varying concentrations, 0 to 25 μM
# Description: as §2, §3
# as §1, with “Perfusion of BCRP-specific substrates increased linearly with reduced BCRP-expression (dauricine R=0.7, hymecromone sulfate R=0.81) but were not affected by altering P-gp expression (p>0.28 one-tailed Z test at maximum siPgp concentration; FIG. 5C).” left out
# [12] = transporter(s) reported in previous literature for the drug
# cytochrome P450 3A4, sequence (P08684 whole entry): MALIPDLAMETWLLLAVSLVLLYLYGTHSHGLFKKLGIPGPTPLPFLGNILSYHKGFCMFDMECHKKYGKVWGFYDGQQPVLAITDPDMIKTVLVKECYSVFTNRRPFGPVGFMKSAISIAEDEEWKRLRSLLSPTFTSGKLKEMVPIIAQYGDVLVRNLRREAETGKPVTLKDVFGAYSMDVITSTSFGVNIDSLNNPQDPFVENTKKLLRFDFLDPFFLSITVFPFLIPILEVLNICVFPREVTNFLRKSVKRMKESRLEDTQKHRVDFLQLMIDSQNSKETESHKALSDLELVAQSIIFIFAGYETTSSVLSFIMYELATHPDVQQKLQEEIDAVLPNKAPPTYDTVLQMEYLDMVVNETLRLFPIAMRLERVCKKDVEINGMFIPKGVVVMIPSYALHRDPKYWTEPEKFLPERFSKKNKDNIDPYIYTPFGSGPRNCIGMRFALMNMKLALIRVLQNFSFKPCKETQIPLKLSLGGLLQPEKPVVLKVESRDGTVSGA
compound,measurement,setting,value
CC(=O)CC(c1ccccc1)c1c(O)c2ccccc2oc1=O (stereo not shown) [Warfarin],metabolism through cytochrome P450 3A4,[1],metabolized through cytochrome P450 3A4
same,known substrate of transporters,[2],BCRP and MRP2
same,Literature Target,[2]; [12],Pgp & BCRP
same,Platform Target,[3],Pgp & BCRP
C[C@H]1O[C@@H](O[C@H]2[C@@H](O)C[C@H](O[C@H]3[C@@H](O)C[C@H](O[C@H]4CC[C@@]5(C)[C@H](CC[C@@H]6[C@@H]5C[C@@H](O)[C@]5(C)[C@@H](C7=CC(=O)OC7)CC[C@]65O)C4)O[C@@H]3C)O[C@@H]2C)C[C@H](O)[C@@H]1O [digoxin],perfusion / absorption upon co-treatment with doxycycline,[4],increased absorption
same,metabolism through cytochrome P450 3A4,[1],not cytochrome substrates
same,known substrate of transporters,[2],BCRP and MRP2
NCCC(O)(P(=O)(O)O)P(=O)(O)O [Pamidronate disodium salt hydrate],Literature Target,[2]; [12],no target
same,Platform Target,[3],Pgp
CN1C(C(=O)Nc2ccccn2)=C(O)c2ccccc2S1(=O)=O [Piroxicam],Literature Target,[2]; [12],no target
same,Platform Target,[3],no target
N[C@@H](Cc1ccccc1)C(=O)O [L-phenylalanine],Literature Target,[2]; [12],no target
same,Platform Target,[3],no target
CN(C)[C@@H]1C(O)=C(C(N)=O)C(=O)[C@@]2(O)C(O)=C3C(=O)c4c(O)ccc(Cl)c4[C@@](C)(O)[C@H]3C[C@@H]12 [Chlorotetracycline],Platform Target,[5],no target
same,Literature Target,[2],no target
hymecromone sulfate,"R, perfusion increase versus reduced BCRP-expression","[6]; BCRP-specific substrates, linear relation, FIG. 5C",0.81
same,perfusion on altering P-gp expression,"[7]; BCRP-specific substrates, p>0.28 one-tailed Z test at maximum siPgp concentration",not affected
CC(C)(C)NCC(O)COc1cccc2c1CC(O)C(O)C2 (stereo not shown) [Nadolol],Literature Target,[2]; [12],no target
same,Platform Target,[3],BCRP
C=CC[C@@H]1/C=C(\C)C[C@H](C)C[C@H](OC)[C@H]2O[C@@](O)(C(=O)C(=O)N3CCCC[C@H]3C(=O)O[C@H](/C(C)=C/[C@@H]3CC[C@@H](O)[C@H](OC)C3)[C@H](C)[C@@H](O)CC1=O)[C@H](C)C[C@@H]2OC [tacrolimus],perfusion / absorption upon co-treatment with doxycycline,"[4]; ex vivo, LC-MS/MS, p<0.05",increased absorption
same,metabolism through cytochrome P450 3A4,[1],metabolized through cytochrome P450 3A4
same,known substrate of transporters,[2],BCRP and MRP2
CC[C@@H](C(N)=O)N1CCCC1=O [levetiracetam],perfusion / absorption upon co-treatment with doxycycline,[4],increased absorption
same,metabolism through cytochrome P450 3A4,[1],not cytochrome substrates
same,known substrate of transporters,[2],BCRP and MRP2
CCOc1nc2cccc(C(=O)OC(C)OC(=O)OC3CCCCC3)c2n1Cc1ccc(-c2ccccc2-c2nnn[nH]2)cc1 (stereo not shown) [Candesartan cilexetil],Literature Target,[2]; [12],Pgp
same,Platform Target,[3],no target
C[C@H]1c2cccc(O)c2C(=O)C2=C(O)[C@]3(O)C(=O)C(C(N)=O)=C(O)[C@@H](N(C)C)[C@@H]3[C@@H](O)[C@@H]21 [Doxycycline],known substrate of transporters,[2],P-gp and OAT1
same,Literature Target,[2]; [12],no target
same,relative AUC (drug absorption) with versus without transport inhibitor,[8],novel BCRP and MRP2 substrate
same,Platform Target,[3],BCRP & MRP2
CN(C)C(=O)C(CCN1CCC(O)(c2ccc(Cl)cc2)CC1)(c1ccccc1)c1ccccc1 [Loperamide],Platform Target,[5],no target
same,Literature Target,[2],no target
COc1cc2c(cc1OC)[C@@H](Cc1ccc(Oc3cc(C[C@@H]4c5cc(OC)c(OC)cc5CCN4C)ccc3O)cc1)N(C)CC2 [dauricine],"R, perfusion increase versus reduced BCRP-expression",[6]; pig,0.7
same,perfusion on altering P-gp expression,[7],not affected
O=c1ccc2ccccc2o1 [Coumarin],Literature Target,[2]; [12],Pgp
same,Platform Target,[3],Pgp
CC(C)c1nc(N(C)S(C)(=O)=O)nc(-c2ccc(F)cc2)c1/C=C/[C@@H](O)C[C@@H](O)CC(=O)O [Rosuvastatin],"p, two-tailed T test, of perfusion increase after knockdown",[9],2%
Ergotamine D-tartrate,Literature Target,[2]; [12],Pgp
same,Platform Target,[3],Pgp & BCRP & MRP2
CC(C)(C)NCC(O)c1cc(O)cc(O)c1 (stereo not shown) [Terbutaline],Literature Target,[2]; [12],no target
same,Platform Target,[3],no target
"siRNA targeting BCRP: siRNA duplex, sense SEQ ID NO: 95, antisense SEQ ID NO: 96 (sense ACUUCUUCCUGGACGUCAUUATT; antisense UAAUGACGUCCAGGAAGAAGUTT; chemistry not given here)","Pearson r, expression level versus siRNA dose",[10],0.96
NC(=O)N1c2ccccc2C=Cc2ccccc21 [Carbamazepine],Literature Target,[2]; [12],Pgp
same,relative AUC (drug absorption) with versus without transport inhibitor,[8],did not show the expected effect
same,Platform Target,[3],Pgp & BCRP
"siRNA targeting P-gp: siRNA duplex, sense SEQ ID NO: 91, antisense SEQ ID NO: 92 (sense AUGACAGUGUACGCCUAUUAUTT; antisense AUAAUAGGCGUACACUGUCAUTT; sugars from the 5' end r21 d2, backbone not given here)","Pearson r, expression level versus siRNA dose",[11],0.79
CNC(=C[N+](=O)[O-])NCCSCc1ccc(CN(C)C)o1 [Ranitidine],Literature Target,[2]; [12],Pgp & BCRP
same,Platform Target,[3],Pgp & BCRP & MRP2

# Source: US12031977B2, “Ex vivo system for determining multiple drug-drug transporter interactions and methods of use thereof” (Massachusetts Institute of Technology, priority 2019, dated 2024)
